Assay results taken from PMC10840350 (Redox Biology, 2024).

Assays:
[1] = target: T1, TXNRD1 (thioredoxin reductase 1) (Rattus norvegicus, UniProt O89049); assay: […] min incubation, residual activity by DTNB reduction assay; format: biochemical
T1 sequence (O89049 1-499): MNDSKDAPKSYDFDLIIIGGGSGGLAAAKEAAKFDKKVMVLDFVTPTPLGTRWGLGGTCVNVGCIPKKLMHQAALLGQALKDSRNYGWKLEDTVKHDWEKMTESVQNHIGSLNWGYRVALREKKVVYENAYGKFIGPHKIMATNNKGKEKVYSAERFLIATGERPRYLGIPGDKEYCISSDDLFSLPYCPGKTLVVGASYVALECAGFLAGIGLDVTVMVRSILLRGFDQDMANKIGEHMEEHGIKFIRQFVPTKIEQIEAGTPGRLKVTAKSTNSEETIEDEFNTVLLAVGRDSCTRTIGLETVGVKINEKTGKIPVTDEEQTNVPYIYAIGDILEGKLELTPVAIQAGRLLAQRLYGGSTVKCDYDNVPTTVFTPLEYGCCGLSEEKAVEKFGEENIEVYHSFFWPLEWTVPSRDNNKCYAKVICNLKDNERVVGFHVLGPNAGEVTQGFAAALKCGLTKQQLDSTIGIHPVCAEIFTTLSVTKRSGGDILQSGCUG

[2] = target: T1, TXNRD1 (thioredoxin reductase 1); assay: as above; format: biochemical; conditions: 0.25 h, read-out: % residual activity at 0.5 μM

| remaining activity at 0.5 µM [2] [%] | Compound | 60 min incubation, residual activity by DTNB reduction assay [1] |
| --- | --- | --- |
| – | [NH2][Pt]([NH2])([Cl])[Cl] [cisplatin] | the inhibition of auranofin and cisplatin on TXNRD1 is not significantly affected by guiding bar mutants |
| ~30 | COc1ccc([N+](=O)[O-])c(S(=O)(=O)c2ccc(Cl)cc2)n1 [TRi-1] | – |
